In brackets after ≈: the same amount, converted by molar mass.
Columns and labels:
[1] = system: HeLa; test: Cytotoxicity against human HeLa cells assessed as reduction of cell viability incubated for 48 hrs by MTT assay; type: functional, cell-based
[2] = system: Jurkat; test: Cytotoxicity against human Jurkat cells incubated for 16 hrs by MTS colorimetric assay; type: functional, cell-based
[3] = system: A549; test: Antiproliferative activity against human A549 cells assessed as inhibition of cell proliferation incubated for 48 hrs by SRB assay; type: functional, cell-based; details: A549, 48 h
[4] = system: HBL-100; test: Antiproliferative activity against human HBL-100 cells assessed as inhibition of cell proliferation incubated for 48 hrs by SRB assay; type: functional, cell-based; details: HBL-100, 48 h
[5] = system: HeLa; test: Antiproliferative activity against human HeLa cells assessed as inhibition of cell proliferation incubated for 48 hrs by SRB assay; type: functional, cell-based
[6] = system: SW1573; test: Antiproliferative activity against human SW1573 cells assessed as inhibition of cell proliferation incubated for 48 hrs by SRB assay; type: functional, cell-based; details: SW1573, 48 h
[7] = system: T47D; test: Antiproliferative activity against human T47D cells assessed as inhibition of cell proliferation incubated for 48 hrs by SRB assay; type: functional, cell-based
[8] = system: WiDr; test: Antiproliferative activity against human WiDr cells assessed as inhibition of cell proliferation incubated for 48 hrs by SRB assay; type: functional, cell-based
[9] = system: HFF; test: Cytotoxicity against human HFF cells; type: functional, cell-based
[10] = system: MRC5; test: Cytotoxicity against human MRC5 cells; type: functional, cell-based
[11] = system: SW480; test: Cytotoxicity against human SW480 cells; type: functional, cell-based
[12] = system: HT-29; test: Cytotoxicity against human HT-29 cells; type: functional, cell-based
[13] = system: SAOS-2; test: Cytotoxicity against human SAOS-2 cells; type: functional, cell-based
[14] = system: DLD-1; test: Cytotoxicity against human DLD-1 cells; type: functional, cell-based
[15] = system: NCI-H460; test: Cytotoxicity against human NCI-H460 cells; type: functional, cell-based
[16] = system: MCF7; test: Antiproliferative activity against human MCF7 cells assessed as inhibition of cell proliferation incubated for 24 hrs by trypan blue assay; type: functional, cell-based; details: MCF7, 24 h
[17] = system: HL-60; test: Induction of apoptosis in human HL-60 cells at 5 uM incubated for 24 hrs by Annexin V-FITC/PI based flow cytometric analysis; type: functional
[18] = system: HL-60; test: Cytotoxicity against human HL-60 cells assessed as inhibition of cell growth incubated for 22 hrs by MTS spectrophotometric assay; type: functional, cell-based; details: HL-60, 22 h
[19] = system: THP-1; test: Cytotoxicity against human THP-1 cells assessed as inhibition of cell growth incubated for 22 hrs by MTS spectrophotometric assay; type: functional, cell-based; details: THP-1, 22 h

Compound `CCCCCCCCCCCCCCCC(=O)OCc1cn([C@@H]2O[C@H](CO)[C@@H](O)[C@H](O)[C@H]2O)nn1` has an IC50 [1] of 121 µM.
For `CCCCCCCCCCCCCCCCn1cc(CO[C@@H]2O[C@H](CO)[C@@H](O)[C@H](O)[C@H]2O)nn1`, the IC50 [2] was 24 µM.
`CCCCCCCCN[C@@H]1[C@H](O)[C@@H](O)[C@@H](O)[C@H]2COC(=O)N21` showed an IC50 [3] of 30 µM, an IC50 [4] of 30 µM and an IC50 [5] of 30 µM. The IC50 [6] was 30 µM, the IC50 [7] was 30 µM and the IC50 [8] was 30 µM.
`C[C@@H](N)[C@H](O)CCCCCCCC(=O)CCCCCCCCCCCCCC[C@H](O)[C@H](N)CO[C@@H]1O[C@H](CO)[C@@H](O)[C@H](O)[C@H]1O` was tested, and the IC50 [9] was 3 µg/mL (≈ 4.62 µM), the IC50 [10] was 3 µg/mL (≈ 4.62 µM) and the IC50 [11] was 3 µg/mL (≈ 4.62 µM). It also gave an IC50 [12] of 3 µg/mL (≈ 4.62 µM), an IC50 [13] of 3 µg/mL (≈ 4.62 µM) and an IC50 [14] of 3 µg/mL (≈ 4.62 µM). The IC50 [15] was 3 µg/mL (≈ 4.62 µM).
In the case of `CCCCCCCC[C@@H]1[C@H](O)[C@@H](O)[C@H](O)[C@H]2COC(=O)N12`, the IC50 [16] is reported as 22 µM.
Work on `C[C@@H](N)[C@H](O)CCCCCCCCCCCCCCC(=O)CCCCCCC[C@@H](O)[C@@H](C)N` yielded an Activity [17] of 93%.
With `C[C@@H](N)[C@H](O)CCCCCCCC(=O)CCCCCCCCCCCCCC[C@H](O[C@@H]1O[C@H](CO)[C@H](O)[C@H](O)[C@H]1O)[C@@H](C)N` the IC50 [18] was 1.7 µM and the IC50 [19] was 1.7 µM.
